Values quoted from earlier work, collected in paper PMC7579232 (Current Clinical Pharmacology, 2020).

How the values were obtained:
[1] = rabbits
[2] = rats

CCOC(=O)C1=C(C)NC(C)=C(C(=O)OC)C1c1cccc([N+](=O)[O-])c1 (stereo not drawn) [nitrendipine]
Increase of area under the concentration-time curve by pomegranate juice [1]: 2.03 fold | Increase of peak plasma concentration by pomegranate juice [1]: 2 fold

NC(=O)N1c2ccccc2C=Cc2ccccc21 [carbamazepine]
Effect of pomegranate juice on elimination half-life [2]: does not affect | Increase of AUC by pomegranate juice ([2]; oral carbamazepine with pomegranate juice): approximately 1.5 fold

C=CC[C@@H]1/C=C(\C)C[C@H](C)C[C@H](OC)[C@H]2O[C@@](O)(C(=O)C(=O)N3CCCC[C@H]3C(=O)O[C@H](/C(C)=C/[C@@H]3CC[C@@H](O)[C@H](OC)C3)[C@H](C)[C@@H](O)CC1=O)[C@H](C)C[C@@H]2OC [tacrolimus]
Effect of co-administered pomegranate dietary products on drug concentration (a heart transplant patient): increased

Cc1ncc2n1-c1ccc(Cl)cc1C(c1ccccc1F)=NC2 [midazolam]
Effect of pomegranate juice on Cmax and AUC (oral midazolam, healthy volunteers): did not affect
